Experiment [1] has as its target T1, Metabotropic glutamate receptor 5 (Rattus norvegicus, UniProt P31424). Kind of experiment: Displacement of [3H]MPEP from rat brain recombinant mGluR5 expressed in HEK293T cells by scintillation counting. The class given is cell-based, HEK-293T.
Experiment [2] concerns the target T2, Metabotropic glutamate receptor 5 (Homo sapiens, UniProt P41594). Kind of experiment: Antagonist activity at cloned mGluR5 expressed in CHO cells co-transfected with chimeric G protein Gqi9 assessed as inhibition of glutamate-induced intracellular inositol phosphate accumulation at 10 uM by phosphoinositide hydrolysis assay. The class given is functional, cell-based.
Target sequence in this assay (P41594 21-1212 limits assumed): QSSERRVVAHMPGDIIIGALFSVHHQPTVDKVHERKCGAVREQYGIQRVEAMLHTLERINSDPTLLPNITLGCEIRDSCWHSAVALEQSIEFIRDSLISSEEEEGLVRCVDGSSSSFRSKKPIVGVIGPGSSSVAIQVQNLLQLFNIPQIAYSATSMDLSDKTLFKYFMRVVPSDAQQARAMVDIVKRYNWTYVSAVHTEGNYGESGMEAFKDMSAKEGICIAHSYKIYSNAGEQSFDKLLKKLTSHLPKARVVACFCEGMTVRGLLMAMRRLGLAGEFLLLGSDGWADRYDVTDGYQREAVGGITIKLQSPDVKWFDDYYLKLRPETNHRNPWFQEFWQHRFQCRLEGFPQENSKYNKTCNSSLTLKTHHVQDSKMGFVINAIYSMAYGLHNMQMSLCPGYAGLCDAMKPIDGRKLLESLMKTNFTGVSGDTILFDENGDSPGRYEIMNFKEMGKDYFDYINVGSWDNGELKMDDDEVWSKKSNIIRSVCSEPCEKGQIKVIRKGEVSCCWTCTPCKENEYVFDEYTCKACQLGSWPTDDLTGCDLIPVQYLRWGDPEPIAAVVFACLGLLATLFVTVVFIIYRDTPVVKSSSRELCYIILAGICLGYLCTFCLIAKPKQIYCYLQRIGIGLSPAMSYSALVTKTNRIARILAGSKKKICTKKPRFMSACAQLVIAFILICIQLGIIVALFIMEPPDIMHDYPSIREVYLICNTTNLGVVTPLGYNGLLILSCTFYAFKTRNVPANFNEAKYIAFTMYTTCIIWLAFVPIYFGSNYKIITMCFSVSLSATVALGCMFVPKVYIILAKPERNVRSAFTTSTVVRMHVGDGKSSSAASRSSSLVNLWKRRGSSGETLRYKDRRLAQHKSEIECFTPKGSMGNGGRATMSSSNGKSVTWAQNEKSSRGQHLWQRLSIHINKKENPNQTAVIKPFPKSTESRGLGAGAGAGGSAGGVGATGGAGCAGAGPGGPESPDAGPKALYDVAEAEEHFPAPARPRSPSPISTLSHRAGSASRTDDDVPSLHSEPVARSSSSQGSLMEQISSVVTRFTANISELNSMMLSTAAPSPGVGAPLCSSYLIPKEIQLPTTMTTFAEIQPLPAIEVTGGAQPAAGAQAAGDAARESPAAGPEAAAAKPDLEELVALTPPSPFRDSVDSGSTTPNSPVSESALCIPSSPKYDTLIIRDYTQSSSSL

The target of experiment [3] is Metabotropic glutamate receptor 1 (Homo sapiens) (UniProt Q13255). Kind of experiment: Antagonist activity at cloned mGluR1 expressed in CHO cells co-transfected with chimeric G protein Gqi9 assessed as inhibition of glutamate-induced intracellular inositol phosphate accumulation at 10 uM by phosphoinositide hydrolysis assay. The class given is functional, cell-based.

In experiment [4] the target is Metabotropic glutamate receptor 6 (Homo sapiens) (UniProt O15303). Kind of experiment: Antagonist activity at cloned mGluR6 expressed in CHO cells co-transfected with chimeric G protein Gqi9 assessed as inhibition of glutamate-induced intracellular inositol phosphate accumulation at 10 uM by phosphoinositide hydrolysis assay. The class given is functional, cell-based.

The target of experiment [5] is T2, Metabotropic glutamate receptor 5. Put plainly: Displacement of [3H]MPEP from cloned mGluR5 expressed in HEK293T cells by scintillation counting. The class given is cell-based, HEK-293T.
Experiment [6] has as its target T1, Metabotropic glutamate receptor 5. Kind of experiment: Antagonist activity at rat mGluR5 expressed in HEK293A cells assessed as glutamate-induced calcium flux preincubated for 140 sec before glutamate challenge by calcium fluorescence assay. The class given is functional, cell-based, HEK293-A.
Experiment [7] addresses T3, Sodium-dependent dopamine transporter (Homo sapiens, UniProt Q01959). Kind of experiment: Displacement of [125I]RTI55 from human DAT expressed in HEK293 cells. The class given is cell-based.
Experiment [8] has as its target T4, Sodium-dependent serotonin transporter (Homo sapiens, UniProt P31645). Put plainly: Displacement of [125I]RTI55 from human SERT expressed in HEK293 cells. The class given is cell-based.
The target in experiment [9] is T5, Sodium-dependent noradrenaline transporter (Homo sapiens, UniProt P23975). Put plainly: Displacement of [125I]RTI55 from human NET expressed in HEK293 cells. The class given is cell-based.
Experiment [10] concerns the target T3, Sodium-dependent dopamine transporter. Put plainly: Inhibition of dopamine uptake at human DAT expressed in HEK293 cells. The class given is cell-based.
In experiment [11] the target is T4, Sodium-dependent serotonin transporter. Put plainly: Inhibition of serotonin uptake at human SERT expressed in HEK293 cells. The class given is cell-based.
Experiment [12] concerns the target T5, Sodium-dependent noradrenaline transporter. Kind of experiment: Inhibition of norepinephrine uptake at human NET expressed in HEK293 cells. The class given is cell-based.

Chain of Metabotropic glutamate receptor 1 (Homo sapiens) (Q13255 19-1194 limits assumed): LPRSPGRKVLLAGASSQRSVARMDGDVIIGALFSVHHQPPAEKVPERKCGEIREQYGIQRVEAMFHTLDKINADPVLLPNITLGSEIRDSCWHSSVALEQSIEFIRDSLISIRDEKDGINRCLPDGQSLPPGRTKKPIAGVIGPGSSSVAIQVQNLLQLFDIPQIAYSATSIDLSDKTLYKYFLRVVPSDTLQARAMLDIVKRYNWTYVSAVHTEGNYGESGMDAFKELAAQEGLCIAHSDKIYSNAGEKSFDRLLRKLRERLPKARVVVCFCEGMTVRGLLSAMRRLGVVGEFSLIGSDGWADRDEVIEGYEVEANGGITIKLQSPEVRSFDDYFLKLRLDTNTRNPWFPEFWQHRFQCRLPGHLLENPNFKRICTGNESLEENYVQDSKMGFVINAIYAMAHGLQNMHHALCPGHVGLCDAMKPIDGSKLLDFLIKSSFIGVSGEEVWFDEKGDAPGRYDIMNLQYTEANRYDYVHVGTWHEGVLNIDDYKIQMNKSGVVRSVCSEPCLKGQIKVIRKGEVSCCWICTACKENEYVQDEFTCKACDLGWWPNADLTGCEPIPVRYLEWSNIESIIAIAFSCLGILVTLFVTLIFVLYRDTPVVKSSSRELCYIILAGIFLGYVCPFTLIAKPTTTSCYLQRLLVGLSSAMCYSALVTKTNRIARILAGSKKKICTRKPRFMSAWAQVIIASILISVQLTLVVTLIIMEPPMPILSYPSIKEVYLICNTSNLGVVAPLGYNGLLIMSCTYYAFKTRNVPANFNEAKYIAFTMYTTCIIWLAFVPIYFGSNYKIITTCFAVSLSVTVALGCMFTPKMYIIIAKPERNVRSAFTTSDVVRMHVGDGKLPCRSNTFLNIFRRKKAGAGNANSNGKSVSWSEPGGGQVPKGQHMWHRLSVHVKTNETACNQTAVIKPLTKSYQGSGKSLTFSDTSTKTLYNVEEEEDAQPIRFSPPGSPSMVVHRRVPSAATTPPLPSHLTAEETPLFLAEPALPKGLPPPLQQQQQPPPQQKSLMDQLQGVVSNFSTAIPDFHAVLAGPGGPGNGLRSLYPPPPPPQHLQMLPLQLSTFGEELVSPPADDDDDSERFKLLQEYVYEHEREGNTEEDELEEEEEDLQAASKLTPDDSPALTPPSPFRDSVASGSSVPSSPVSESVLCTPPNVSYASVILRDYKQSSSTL
T5 sequence (P23975 whole entry): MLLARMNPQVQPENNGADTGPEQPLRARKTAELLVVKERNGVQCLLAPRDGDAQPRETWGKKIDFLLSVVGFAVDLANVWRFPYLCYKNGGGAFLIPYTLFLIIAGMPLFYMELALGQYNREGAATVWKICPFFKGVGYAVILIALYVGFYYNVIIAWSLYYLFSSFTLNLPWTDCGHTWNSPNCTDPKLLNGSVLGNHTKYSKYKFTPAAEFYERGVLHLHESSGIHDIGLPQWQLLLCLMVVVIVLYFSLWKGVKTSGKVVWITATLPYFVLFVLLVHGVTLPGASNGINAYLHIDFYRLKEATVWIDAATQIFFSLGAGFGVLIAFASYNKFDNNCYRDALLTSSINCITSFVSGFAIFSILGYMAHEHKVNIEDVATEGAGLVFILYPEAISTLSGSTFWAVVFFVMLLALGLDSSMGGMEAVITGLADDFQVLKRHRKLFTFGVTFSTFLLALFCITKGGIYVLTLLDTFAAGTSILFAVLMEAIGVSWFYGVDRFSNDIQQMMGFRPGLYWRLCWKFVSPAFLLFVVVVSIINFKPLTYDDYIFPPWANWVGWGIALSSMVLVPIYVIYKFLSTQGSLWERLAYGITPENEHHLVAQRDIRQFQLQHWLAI
T4 sequence (P31645 whole entry): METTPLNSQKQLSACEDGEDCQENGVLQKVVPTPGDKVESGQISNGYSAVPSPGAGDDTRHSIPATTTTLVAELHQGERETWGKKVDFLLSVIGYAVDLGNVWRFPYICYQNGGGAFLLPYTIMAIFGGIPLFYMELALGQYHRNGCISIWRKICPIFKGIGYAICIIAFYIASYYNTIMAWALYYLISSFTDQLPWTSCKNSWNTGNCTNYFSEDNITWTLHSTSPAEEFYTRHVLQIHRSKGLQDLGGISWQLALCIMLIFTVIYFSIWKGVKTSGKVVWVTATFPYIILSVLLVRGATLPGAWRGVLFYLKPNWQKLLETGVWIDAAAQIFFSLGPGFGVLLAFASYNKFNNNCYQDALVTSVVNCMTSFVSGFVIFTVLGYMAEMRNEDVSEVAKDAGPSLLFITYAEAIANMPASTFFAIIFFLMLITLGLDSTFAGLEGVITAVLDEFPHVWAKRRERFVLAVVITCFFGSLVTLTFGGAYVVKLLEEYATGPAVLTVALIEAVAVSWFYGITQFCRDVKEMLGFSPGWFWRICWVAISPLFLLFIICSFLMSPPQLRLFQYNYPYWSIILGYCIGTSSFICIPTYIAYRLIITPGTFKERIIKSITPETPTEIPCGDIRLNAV
T3 sequence (Q01959 whole entry): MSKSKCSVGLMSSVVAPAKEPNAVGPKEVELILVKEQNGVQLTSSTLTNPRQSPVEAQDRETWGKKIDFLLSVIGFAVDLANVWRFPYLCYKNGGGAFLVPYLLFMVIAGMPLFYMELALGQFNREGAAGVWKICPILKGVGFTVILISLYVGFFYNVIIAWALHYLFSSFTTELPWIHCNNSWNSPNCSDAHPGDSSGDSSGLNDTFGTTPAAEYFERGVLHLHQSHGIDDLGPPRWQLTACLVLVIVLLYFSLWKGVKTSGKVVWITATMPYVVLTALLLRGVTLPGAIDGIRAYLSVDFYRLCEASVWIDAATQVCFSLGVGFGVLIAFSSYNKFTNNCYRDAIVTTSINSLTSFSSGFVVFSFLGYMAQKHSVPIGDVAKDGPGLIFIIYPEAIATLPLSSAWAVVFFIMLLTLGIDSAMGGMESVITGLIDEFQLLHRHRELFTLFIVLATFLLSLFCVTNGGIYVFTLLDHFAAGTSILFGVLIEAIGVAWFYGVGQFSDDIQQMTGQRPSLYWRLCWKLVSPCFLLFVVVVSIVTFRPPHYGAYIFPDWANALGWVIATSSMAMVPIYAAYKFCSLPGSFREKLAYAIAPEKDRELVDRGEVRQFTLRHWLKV

On to `Cc1cccc(NC(=O)c2cc(F)cc(-c3ccccc3C)c2)n1`, for which, in experiment [1], the Ki came to 0.61 µM. For the same compound, the inhibition in experiment [2] is over 70%; in [3], under 70%; in [4], under 70%.
In experiment [5], `Cc1cccc(NC(=O)c2ccc(-c3cccc(Cl)c3)cc2)n1` gave a Ki of 3.33 µM. For the same compound, the results for the inhibition in experiment [2], in experiment [3] and in experiment [4] were at most 70%, under 70% and under 70%, respectively.
With `Cc1cccc(C#Cc2cccc(C#N)c2)n1`, in experiment [1], the Ki came to 0.0013 µM. In [6], the IC50 worked out at 0.000415 µM. Also, the values for the inhibition in experiment [2], in [3] and in [4] were over 70%, under 70% and under 70%, respectively.
Consider `COc1ccccc1-c1cc(F)cc(C(=O)Nc2cccc(C)n2)c1`, for which the Ki in experiment [1] was over 10 µM. Further, the inhibition is over 70% in experiment [2], under 70% in experiment [3] and under 70% in experiment [4].
As for `Cc1cccc(NC(=O)c2ccc(-c3cccc4ccccc34)c(C#N)c2)n1`, the Ki in experiment [1] was found to be 0.072 µM. For the same compound, the IC50 in [6] is 0.64 µM. For the same compound, the inhibition was over 70% in [2], under 70% in [3] and under 70% in [4].
In turn, `Cc1cccc(NC(=O)c2ccc(-c3ccccc3)cc2)n1` had a Ki in experiment [5] of 7 µM. Also, the inhibition in [2] is at most 70%; in experiment [3], under 70%; in [4], under 70%.
As for `Cc1cccc(C#Cc2ccc(-c3ccc(F)cc3)c(C#N)c2)n1`, the inhibitory constant (Ki) in [1] is 0.003 µM. Further, the IC50 in experiment [6] was determined as 0.00719 µM. The inhibition is over 70% in experiment [2], under 70% in [3] and under 70% in [4].
As for `Cc1nc(C#Cc2cccnc2)cs1`, the inhibition in experiment [2], in [3] and in experiment [4] was under 70% in each case.
Consider `Cc1cccc(NC(=O)c2ccc(-c3ccc(F)cc3)c(C#N)c2)n1`, for which, in experiment [1], the Ki was found to be 0.134 µM. For the same compound, the IC50 in [6] turned out to be 0.00457 µM. Moreover, the inhibition was over 70% in experiment [2], under 70% in experiment [3] and under 70% in [4].
For `Cc1cccc(NC(=O)c2ccc(-c3cccnc3)nc2)n1`, the Ki in [1] was found to be 2.48 µM. For the same compound, the IC50 in experiment [6] is over 3 µM. Moreover, the inhibition in experiment [2] was over 70%; in experiment [3], under 70%; in [4], under 70%.
For `Cc1cccc(NC(=O)c2ccc(-c3ccccc3)c(C#N)c2)n1`, the inhibition constant (Ki) in experiment [5] is 0.0098 µM; in [7], over 6 µM; in experiment [8] it was over 6 µM; in experiment [9], over 6 µM; in experiment [10] it was over 6 µM; in [11], over 6 µM. Also, the Ki in experiment [12] is over 6 µM. For the same compound, the half-inhibitory concentration (IC50) in experiment [6] came to 0.0137 µM.
As to `Cc1cccc(NC(=O)c2ccc(-c3cccc(F)c3)c(C#N)c2)n1`, the inhibition in [2] is over 70%; in experiment [3] it was under 70%; in [4], under 70%. Moreover, the Ki in [7], in experiment [8], in experiment [9], in experiment [10], in experiment [11] and in [12] was over 6 µM each time.
Consider `Cc1cccc(NC(=O)c2ccc(F)c(F)c2)n1`, for which the Ki in [5] is over 10 µM. Further, the inhibition in [2] is over 70%; in experiment [3], under 70%; in [4], under 70%.
Consider `Cc1cccc(NC(=O)c2ccc(-c3cccnc3)c(F)c2)n1`, for which, in experiment [1], the Ki is 7.72 µM. In experiment [6], the IC50 was over 3 µM. Moreover, the figures for the inhibition in [2], in experiment [3] and in [4] were over 70%, under 70% and under 70%, respectively.
`Cc1cccc(C#Cc2ccccc2)n1`: the inhibition was over 70% in [2], under 70% in experiment [3] and under 70% in experiment [4].
Consider `Cc1cccc(NC(=O)c2ccc(-c3cccc(C#N)c3)cc2)n1`, for which, in experiment [5], the Ki was over 10 µM. Besides, the inhibition was at most 70% in experiment [2], under 70% in experiment [3] and under 70% in experiment [4].
`Cc1nc(C#Cc2cc(F)cc(C#N)c2)cs1` displayed a Ki in [5] of 0.0009 µM. In addition, in experiment [6], the IC50 is 0.000813 µM. In addition, the inhibition in experiment [2] was over 70%; in experiment [3] it was under 70%; in [4], under 70%.
`Cc1cccc(NC(=O)c2ccc(C#N)cc2)n1` yielded a Ki in [5] of over 10 µM. In addition, the inhibition in [2] was over 70%; in [3], under 70%; in experiment [4], under 70%.
`Cc1cccc(NC(=O)c2cncc(-c3cccnc3)c2)n1`: in [1], the Ki was over 10 µM. The values for the inhibition in experiment [2], in experiment [3] and in experiment [4] were over 70%, under 70% and under 70%, respectively.
Take `Cc1nc(C#Cc2cc(F)cc(-c3cccnc3)c2)cs1`: the Ki in [5] was 0.0027 µM; in experiment [7], over 6 µM; in [8], over 6 µM; in [9] it was over 6 µM; in experiment [10], over 6 µM; in experiment [11], over 6 µM. Also, the Ki in experiment [12] was over 6 µM. For the same compound, the IC50 in experiment [6] stood at 0.00483 µM. The inhibition in experiment [2] is over 70%; in [3] it was under 70%; in experiment [4], under 70%.
As for `Cc1cccc(NC(=O)c2cc(F)cc(F)c2)n1`, the Ki in experiment [5] turned out to be 7.58 µM. For the same compound, the inhibition in [2] is at most 70%; in experiment [3], under 70%; in experiment [4], under 70%.
With `Cc1cccc(NC(=O)c2ccc(-c3cccnc3)c(C#N)c2)n1`, the Ki in experiment [1] came out at 2.04 µM. For the same compound, the IC50 in [6] was over 1 µM. Moreover, the inhibition in experiment [2] was over 70%; in [3] it was under 70%; in experiment [4], under 70%.
Consider `Cc1cccc(NC(=O)c2cc(F)cc(-c3cccnc3)c2)n1`, for which the Ki in [1] is 0.702 µM. Moreover, the inhibition in experiment [2] was over 70%; in experiment [3] it was under 70%; in experiment [4], under 70%.
`Cc1cccc(NC(=O)c2ccc(Br)cc2)n1`: the Ki in experiment [5] was over 10 µM. In addition, the inhibition in experiment [2] is over 70%; in experiment [3], under 70%; in experiment [4] it was under 70%.
In the case of `Cc1nc(C#Cc2ccc(-c3ccccc3)nc2)cs1`, the inhibition in experiment [2] is over 70%; in [3], under 70%; in experiment [4] it was under 70%.
As to `Cc1nc(C#Cc2ccc(-c3cccnc3)nc2)cs1`, the inhibition is over 70% in [2], under 70% in experiment [3] and under 70% in experiment [4].
In [5], `Cc1cccc(NC(=O)c2ccc(Oc3ccccc3)cc2)n1` registered a Ki of 7.29 µM. The inhibition in [2] was over 70%; in [3], under 70%; in experiment [4] it was under 70%.
Turning to `Cc1cccc(NC(=O)c2ccc(-c3cccnc3)c(Cl)c2)n1`, the Ki in experiment [1] was 2.78 µM. In [6], the 50% inhibitory concentration (IC50) was over 1 µM. Besides, the figures for the inhibition in experiment [2], in [3] and in experiment [4] were over 70%, under 70% and under 70%, respectively.
As for `Cc1cccc(NC(=O)c2cccc(C#N)c2)n1`, in experiment [1], the Ki was found to be 0.33 µM. Also, the IC50 in experiment [6] was 0.49 µM. The figures for the inhibition in experiment [2], in experiment [3] and in [4] were over 70%, under 70% and under 70%, respectively.
On to `Cc1cccc(NC(=O)c2ccc(-c3ccccc3)nc2)n1`, for which the Ki in experiment [1] came to 0.356 µM. In experiment [6], the IC50 was over 3 µM. Moreover, the inhibition in [2] was over 70%; in experiment [3] it was under 70%; in experiment [4] it was under 70%.
Consider `Cc1cccc(NC(=O)c2cc(F)cc(C#N)c2)n1`, for which the Ki in experiment [1] came to 0.0655 µM. For the same compound, the IC50 in experiment [6] stood at 0.0217 µM. Moreover, the inhibition in [2] is over 70%; in experiment [3], under 70%; in experiment [4] it was under 70%.
As to `COc1ccccc1-c1cncc(C(=O)Nc2cccc(C)n2)c1`, the Ki in experiment [1] was 4.92 µM. The inhibition in [2] was over 70%; in [3], under 70%; in experiment [4], under 70%.
For `Cc1nc(C#Cc2ccc(-c3cccnc3)c(F)c2)cs1`, the inhibition was over 70% in experiment [2], under 70% in experiment [3] and under 70% in experiment [4]. In addition, the Ki in experiment [7], in experiment [8], in experiment [9], in experiment [10], in experiment [11] and in [12] was over 6 µM in each case.
Consider `Cc1cccc(NC(=O)c2cc(-c3cc(F)cc(F)c3)ccn2)n1`, for which the IC50 in experiment [6] is 0.0981 µM. Further, the inhibition in experiment [2] was over 70%; in [3], under 70%; in experiment [4], under 70%.
For the compound `Cc1cccc(NC(=O)c2cccc(Cl)c2)n1`, the Ki in experiment [1] was determined as 1.73 µM. Moreover, the IC50 in [6] is 1.87 µM. Further, the inhibition in [2] was over 70%; in experiment [3] it was under 70%; in experiment [4], under 70%.
Turning to `Cc1cccc(NC(=O)c2cccc(-c3ccccc3)c2)n1`, the Ki in experiment [1] was found to be 7.3 µM. For the same compound, the figures for the inhibition in experiment [2], in [3] and in [4] were over 70%, under 70% and under 70%, respectively.
In the case of `Cc1nc(C#Cc2cccc(-c3ccccc3)c2)cs1`, the inhibition in [2] is over 70%; in experiment [3] it was under 70%; in experiment [4] it was under 70%.

(Values after ChEMBL document CHEMBL1136938, “Structure-activity relationships comparing N-(6-methylpyridin-yl)-substituted aryl amides to 2-methyl-6-(substituted-arylethynyl)pyridines or 2-methyl-4-(substituted-arylethynyl)thiazoles as novel metabotropic glutamate receptor subtype 5 antagonists” (J Med Chem, 2009).)
